The subject of test [1] is ERK phosphorylation in KYSE-520 cells. As to the kind of experiment: Phospho-ERK cellular assay. The format is cell-based. To be noted: Homo sapiens, KYSE-520, 2 h, KYSE-520 cells, 2 h at 37° C., phospho-ERK1/2 (Thr202/Tyr204) TR-FRET; read-out: PERK IC50. Put shortly: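 TR-FRET read-out of ERK1/2 Thr202/Tyr204 phosphorylation was taken after overnight antibody incubation at room temperature. Before that, KYSE-520 cells were treated 2 h at 37 °C with compound dilutions and lysed 30 min. Percent inhibition relative to vehicle and cell-free wells was fitted four-parametrically to give IC50.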

Test [2] deals with SHP-2 enzyme (Met1-Leu525) (Homo sapiens (Human), UniProt Q06124). Put plainly: SHP2 inhibition enzymatic assay. The format is biochemical. To be noted: 0.5 nM SHP-2 activated by 500 nM IRS1 peptide, 75 μM DiFMUP substrate; read-out: SHP2wt-IC50. The essentials: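 SHP-2 (Met1-Leu525), 0.5 nM, activated with 500 nM IRS1 bis-phosphopeptide, preincubated 30 min with compounds in HEPES pH 7.2 buffer with 5 mM DTT. 75 μM DiFMUP added for 30 min at room temperature, stopped with bpV; fluorescence read. IC50 from four-parameter logistic fit of % inhibition.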
Sequence of SHP-2 enzyme (Met1-Leu525) (Q06124 1-525): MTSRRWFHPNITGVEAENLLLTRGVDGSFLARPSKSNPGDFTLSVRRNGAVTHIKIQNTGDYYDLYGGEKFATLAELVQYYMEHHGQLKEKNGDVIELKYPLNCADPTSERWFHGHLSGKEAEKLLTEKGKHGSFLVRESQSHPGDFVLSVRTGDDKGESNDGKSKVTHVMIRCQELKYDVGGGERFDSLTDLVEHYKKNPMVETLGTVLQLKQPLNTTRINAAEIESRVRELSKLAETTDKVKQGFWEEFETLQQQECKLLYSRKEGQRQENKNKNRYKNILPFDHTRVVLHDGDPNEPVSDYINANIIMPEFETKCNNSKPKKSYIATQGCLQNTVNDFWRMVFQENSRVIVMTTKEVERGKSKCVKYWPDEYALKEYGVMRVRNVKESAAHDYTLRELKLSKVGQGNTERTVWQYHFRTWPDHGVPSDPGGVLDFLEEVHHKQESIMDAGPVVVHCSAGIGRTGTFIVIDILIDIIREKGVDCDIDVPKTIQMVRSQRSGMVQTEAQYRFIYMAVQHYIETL

Turning to `COCc1cc(C2(CN)C3CCN(c4cnc5c(-c6ccc7nn(C)cc7c6Cl)n[nH]c5n4)CC32)no1` (centres unmarked) [Example 47, (3-(3-(4-chloro-2-methyl-2H-indazol-5-yl)-1H-pyrazolo[3,4-b]pyrazin-6-yl)-7-(5-(methoxymethyl)isoxazol-3-yl)-3-azabicyclo[4.1.0]heptan-7-yl)methanamine], the results for the IC50 in test [1] and in test [2] were less than 1000 nM and less than 500 nM, respectively.

Consider `Cn1cc2c(Cl)c(-c3n[nH]c4nc(N5CCC6C(C5)C6(CN)c5cc(C6CC6)on5)cnc34)ccc2n1` (centres unmarked) [Example 48, (3-(3-(4-chloro-2-methyl-2H-indazol-5-yl)-1H-pyrazolo[3,4-b]pyrazin-6-yl)-7-(5-cyclopropylisoxazol-3-yl)-3-azabicyclo[4.1.0]heptan-7-yl)methanamine], for which the IC50 is less than 1000 nM in test [1] and less than 500 nM in test [2].

On to `Cn1cc2c(Cl)c(-c3n[nH]c4nc(N5CCC6C(C5)C6(CN)c5ncccc5F)cnc34)ccc2n1` (centres unmarked) [Example 49, (3-(3-(4-chloro-2-methyl-2H-indazol-5-yl)-1H-pyrazolo[3,4-b]pyrazin-6-yl)-7-(3-fluoropyridin-2-yl)-3-azabicyclo[4.1.0]heptan-7-yl)methanamine], for which the IC50 in test [1] is less than 1000 nM; in test [2], less than 500 nM.

Take `Cn1cc2c(Cl)c(-c3n[nH]c4nc(N5CCC6C(C5)C6(CN)c5ccc(F)cn5)cnc34)ccc2n1` (centres unmarked) [Example 50, (3-(3-(4-chloro-2-methyl-2H-indazol-5-yl)-1H-pyrazolo[3,4-b]pyrazin-6-yl)-7-(5-fluoropyridin-2-yl)-3-azabicyclo[4.1.0]heptan-7-yl)methanamine]: the IC50 in test [1] was less than 1000 nM; in test [2], less than 500 nM.

Consider `Cc1cc([C@@]2(CN)[C@@H]3CCN(c4cnc5c(-c6cccc7c6C(F)(F)C(=O)N7C)n[nH]c5n4)C[C@@H]32)no1` [Example 51, 4-(6-((1S,6R,7S)-7-(aminomethyl)-7-(5-methylisoxazol-3-yl)-3-azabicyclo[4.1.0]heptan-3-yl)-1H-pyrazolo[3,4-b]pyrazin-3-yl)-3,3-difluoro-1-methylindolin-2-one], for which the figures for the IC50 in test [1] and in test [2] were less than 1000 nM and less than 500 nM, respectively.

As for `Cc1conc1C1(CN)C2CCN(c3cnc4c(-c5ccc6onc(C)c6c5)n[nH]c4n3)CC21` (centres unmarked) [Example 52, (3-(3-(3-methylbenzo[d]isoxazol-5-yl)-1H-pyrazolo[3,4-b]pyrazin-6-yl)-7-(4-methylisoxazol-3-yl)-3-azabicyclo[4.1.0]heptan-7-yl)methanamine], the IC50 in test [1] was less than 1000 nM; in test [2], less than 500 nM.

Turning to `Cc1cc(C2(CN)C3CCN(c4cnc5c(Sc6ccnc(N)c6Cl)n[nH]c5n4)CC32)no1` (centres unmarked) [Example 53, 4-((6-(7-(aminomethyl)-7-(5-methylisoxazol-3-yl)-3-azabicyclo[4.1.0]heptan-3-yl)-1H-pyrazolo[3,4-b]pyrazin-3-yl)thio)-3-chloropyridin-2-amine], the values for the IC50 in test [1] and in test [2] were less than 1000 nM and less than 500 nM, respectively.

In the case of `Cc1cc(C2(CN)C3CCN(c4cnc5c(Sc6ccnc7ccsc67)n[nH]c5n4)CC32)no1` (centres unmarked) [Example 54, (7-(5-methylisoxazol-3-yl)-3-(3-(thieno[3,2-b]pyridin-7-ylthio)-1H-pyrazolo[3,4-b]pyrazin-6-yl)-3-azabicyclo[4.1.0]heptan-7-yl)methanamine], the IC50 in test [1] is less than 1000 nM; in test [2], less than 500 nM.

Regarding `NCC1(c2cccc(F)c2)C2CCN(c3nc4[nH]nc(-c5cccc(Cl)c5Cl)c4nc3CO)CC21` (centres unmarked) [Example 55, (6-(7-(aminomethyl)-7-(3-fluorophenyl)-3-azabicyclo[4.1.0]heptan-3-yl)-3-(2,3-dichlorophenyl)-1H-pyrazolo[3,4-b]pyrazin-5-yl)methanol], the figures for the IC50 in test [1] and in test [2] were less than 1000 nM and less than 500 nM, respectively.

Turning to `NCC1(c2cccc(F)c2)C2CCN(c3nc4[nH]nc(-c5ccccc5)c4nc3CO)CC21` (centres unmarked) [Example 56, (6-(7-(aminomethyl)-7-(3-fluorophenyl)-3-azabicyclo[4.1.0]heptan-3-yl)-3-phenyl-1H-pyrazolo[3,4-b]pyrazin-5-yl)methanol], the results for the IC50 in test [1] and in test [2] were less than 1000 nM and less than 500 nM, respectively.

Usually IC50 stands for the concentration needed to halve the response being measured.

These data come from patent publication US20240109900A1, “AZABICYCLIC SHP2 INHIBITORS” (IRBM S.P.A., priority 2021, published 2024).
